d = 2'-deoxy (DNA); r = 2'-OH (RNA)
Key:
NFKBIZ mRNA = NFKBIZ mRNA expression by RT-qPCR in LPS-stimulated HCECs; format: cell-based, human; details: LPS-stimulated (100 ng/mL) HCECs, 10 μM ASO or siRNA, without transfection reagent, 6 h + 48 h
Method: HCECs were inoculated in a 6-well plate at a density of 1×10^5 cells/well and cultured until adherence. The cells were then stimulated with 100 ng/mL lipopolysaccharide (LPS) overnight. After removing the supernatant, 1 mL of Opti-MEM medium containing ASONFKBIZ-h, ASONFKBIZ-h+Lipofectamine2000 (Lipo2000), and CsA-ASONFKBIZ-h (all containing 10 µM ASO) were added, respectively. Cells without any treatment were used as a blank reference (Mock). After incubation at 37° C. for 6 h, the cells were transferred into DMEM medium and incubated for another 48 h. The cells were collected and RNA was extracted for RT-qPCR to analyze the expression level of the NFKBIZ mRNA in HCECs, and experimental results were shown in FIG. 9. The expression level of NFKBIZ mRNA in HCECs after LPS stimulation was about 1.3 times that of normal cells. […] After adding CsA-ASONFKBIZ-h for co-incubation, the expression of NFKBIZ mRNA was reduced to about 0.8 times that of normal cells.
(§1) HCECs were inoculated in a 6-well plate at a density of 1×10^5 cells/well and cultured until adherence. The cells were then stimulated with 100 ng/mL LPS overnight. After removing the supernatant, 1 mL of Opti-MEM medium containing ASONFKBIZ-h+Lipo2000 complex and 2CsA-ASONFKBIZ-h nanomicelles (all containing 10 µM ASO) were added, respectively. After incubation at 37° C. for 6 h, the cells were transferred into DMEM medium and incubated for another 48 h. The cells were collected and RNA was extracted for RT-qPCR to analyze the expression level of the NFKBIZ mRNA in HCECs, and experimental results were shown in FIG. 12.
as §1, with “ng/ml” for “ng/mL”, “3CsA-ASONFKBIZ-h” for “2CsA-ASONFKBIZ-h”, “15.” for “12.”
HCECs were inoculated in a 6-well plate at a density of 1×10^5 cells/well and cultured until adherence. The cells were then stimulated with 100 ng/mL LPS overnight. 1 mL of Opti-MEM medium containing ASONFKBIZ-h+Lipo2000 complex and CsA3-ASONFKBIZ-h nanomicelles (all containing 10 µM ASO) were added, respectively. After incubation at […]. 37° C. for 6 h, the cells were transferred into DMEM medium and incubated for another 48 h. After collected and RNA was extracted for RT-qPCR to evaluate the expression level of NFKBIZ mRNA in HCECs, and the experimental results were shown in FIG. 23.
HCECs were inoculated in a 6-well plate at a density of 1×10^5 cells/well and cultured overnight until adherence. The cells were then stimulated with 100 ng/ml LPS for 12 h. After removing the supernatant, 1 mL of Opti-MEM medium containing siRNANFKBIZ-h+Lipo2000 complex and nCsA-siRNANFKBIZ-h (n=1, 2, 3) conjugates and nanomicelles (all containing 10 μM siRNA) were added, respectively. After incubation at 37° C. for 6 h, the cells were transferred into DMEM medium and incubated for another 48 h. The cells were collected and RNA was extracted for RT-qPCR to evaluate the expression of NFKBIZ mRNA in HCECs, and experimental results were shown in FIG. 27. […]

[1] = tested on: Human corneal epithelial cells (HCECs); test: Cellular uptake of FITC-labelled conjugate by flow cytometry; format: cell-based
Method: Human corneal epithelial cells (HCECs) were inoculated at a density of 5×10^4 cells/well in a 12-well plate and cultured overnight. After the medium was removed, 0.5 mL of fresh medium containing 10 μM or 100 μM CsA-ASONFKBIZ-h conjugate with FITC fluorescence was added and incubated with HCECs for 6 h, while a well plate without conjugate was used as a blank control (Mock group). After the incubation, the supernatant medium was discarded, and then the cells were digested with trypsin and washed 2 to 3 times with phosphate-buffered saline (PBS, pH=7.2). After the cells were collected, flow cytometric analysis was conducted using a flow cytometer, and experimental results were shown in FIGS. 8A-8B.

Substance	expression of NFKBIZ mRNA relative to normal cells (NFKBIZ mRNA)	cellular uptake ([1]; 10 μM or 100 μM FITC-labelled conjugate, 6 h)	average fluorescence intensity of cells, 100 UM versus 10 μM conjugate ([1]; FITC-labelled conjugate, 6 h incubation, flow cytometry)
3CsA-ASONFKBIZ-h: three CsA molecules coupled to 3DBCO ASO targeting human NFKBIZ (SEQ ID 5), self-assembled (ATCAGACAACGAATCGGGCNTNTT; three CsA via DBCO click; modified_base 20 OTHER; n is t base modified with DBCO moiety; modified_base 22 OTHER)	about 0.75 times that of normal cells	–	–
CsA-ASONFKBIZ-h: single cyclosporin A (CsA-N3) click-coupled to 3′-DBCO ASO targeting human NFKBIZ gene (SEQ ID NO: 1) (ATCAGACAACGAATCGGGC; 3'-DBCO ASO click-conjugated to one cyclosporin A, sugar and linkages not given here, further chemistry not given here)	about 0.8 times that of normal cells	effectively taken up by cells	approximately 10 times
CsA-siRNANFKBIZ-h: one CsA coupled to sense strand of siRNA targeting human NFKBIZ (SEQ ID NO: 9/10) (sense GCCCGAUUCGUUGUCUGAUTT; antisense AUCAGACAACGAAUCGGGCTT; sugars from the 5' end r19 d2, backbone not given here; DBCO clicked to azide-modified cyclosporin A, further chemistry not fully specified)	level before LPS stimulation	–	–
